We go through 15 molecules from US12042530B2, “Target peptides for immunotherapy and diagnostics” (University of Virginia Patent Foundation, priority 2012, dated 2024).

In general, IC50 refers to the concentration at which inhibition is half-maximal.

Non-standard residues stand in square brackets, D forms with d. Residues, ends and D or L forms follow the SMILES beside them. No end group written: not given here. pS = N[C@@H](COP(=O)(O)O)C(=O)O

For one assay, the system named is CD8+ T cells. Briefly: ELISpot T cell recognition assay, healthy donors, leukemia-associated phosphopeptides. The assay is classed as cell-based, human. The note with it: 10 HLA-A2+ and 10 HLA-B7+ healthy individuals, 7 day cultures. As for the experimental part:
Immunity against 76 HLA-B7 and 10 HLA-A2 leukemia-associated phosphopeptide antigens was assessed in 10 HLA-A2^+ and 10 HLA-B7^+ healthy individuals (see FIG. 12A).
For ELISpot analysis, PBMCs and CD8^+ T cells were isolated fresh from healthy donors and patients. 1×10^6 PBMCs were isolated from both AML patients and healthy donors and resuspended in AIM-V media (10% human AB serum) in a 96 well plate. Peptide or phosphopeptides were added individually at 10 μg/ml and placed at 37° C. in CO2 incubator for 7 days. Cells were then harvested, washed 4 times, and re-challenged with phosphopeptides, peptides, or anti-CD3 (OKT3, 100 ng/ml, Mabtech, Inc., Mariemont, Ohio, United States of America) as per the manufacturer's instructions. Individual cytokine-producing cells were identified as dark spots after a 15 minute reaction with 5-bromo-4-chloro-3-indolyl phosphate and NBT by means of an alkaline phosphatase conjugate substrate (Mabtech).

Assay [1] relates to PBMCs. Briefly: 7-day recall ELISpot, AML patients, before and after stem cell transplantation. In kind it is cell-based, human. The method, then:
To develop a more complete understanding of phosphoantigen-directed T cell immunity in patients with leukemia, these studies were extended into AML using a panel of 14 AML-specific phosphopeptide antigens. A cohort of 12 patients in complete remission (CR) with AML (see Table 24) were assessed using 7-day recall responses, as measured by ELISpot, and compared against a cohort of 12 healthy donors (see FIGS. 14A and 16).
To test this hypothesis, all 12 AML patients underwent allogeneic SCT and immune reconstitution against 14 AML-specific phosphopeptide antigens was monitored. […] For some patients, immune reconstitution was studied in more detail. For patient AML8 marked expansions of 6 different phosphopeptide immune responses were observed (see FIG. 14E).
For ELISpot analysis, PBMCs and CD8^+ T cells were isolated fresh from healthy donors and patients. 1×10^6 PBMCs were isolated from both AML patients and healthy donors and resuspended in AIM-V media (10% human AB serum) in a 96 well plate. Peptide or phosphopeptides were added individually at 10 μg/ml and placed at 37° C. in CO2 incubator for 7 days. Cells were then harvested, washed 4 times, and re-challenged with phosphopeptides, peptides, or anti-CD3 (OKT3, 100 ng/ml, Mabtech, Inc., Mariemont, Ohio, United States of America) as per the manufacturer's instructions. […]

The test system of assay [2] is RQA(pS)IELPSMAV-specific T cells. In words: Recognition of peptide-loaded targets by RQA(pS)[…]-specific T cells (IFNγ). The assay is classed as cell-based, human. The source says:
Three of the HLA-A2 and two HLA-B7 phosphopeptides were derived from LSP-1, a protein previously identified as a potential tumor marker. One of these, RQA(pS)[…] (SEQ ID NO: 452), was selected for initial immunological studies due to its widespread expression on all HLA-A2^+ tumor samples analyzed and also because it was present on tumor samples at high copy number. Monocyte-derived dendritic cells were generated from healthy donors and used to prime autologous T cells and HLA-phosphopeptide tetramers were used to enrich phosphopeptide-specific T cells, between each stimulation steps, to produce a monospecific T cell line (see FIG. 11A). […] Recognition was, therefore, phosphate-dependent and phosphopeptide-specific.
HLA-A2 restricted RQA-V (SEQ ID NO: 2375) phosphopeptide-specific cytotoxic CD8^+ T cells were generated from healthy donors as described previously in Ho et al., 2006. Briefly, PBMCs were cultured in flat-bottom 6-well plates at 10^7 cells per well in RPMI 1640 plus 10% heat-inactivated human AB serum (10% media). GM-CSF (800 IU/mL), and IL-4 (1000 units/mL; PeproTech) were added on day 0 to generate dendritic cells (DC). On day 1, a maturation cocktail was added containing 100 ng/ml TNFα, 100 ng/ml IL-1β, 10,000 IU/ml IL-6, 8,000 IU/ml GM-CSF, and 10 μg/ml PGE2. […]

In assay [3] the test system is PBMCs. Briefly: Memory T cell response, IFNγ ELISpot, healthy A2 positive donors. In kind it is cell-based, human.
In another assay the test system is cancer cell lines. In words: Recognition of naturally processed phosphopeptides on cancer cell lines by phosphopeptide-specific CTL (murine IFNγ). In kind it is cell-based, human. The note with it: ovarian, melanoma and breast cancer lines versus JY EBV-BLCL control. The method, then:
FIGS. 9A and 9B are bar graphs of the recognition of naturally processed and presented phosphorylated peptides on cancer cells by the phosphopeptide-specific CTL. Phosphopeptide-specific CTL were incubated with the following cancer cell lines or EBV-transformed B lymphoblastoid cell lines (BLCL): COV413.AAD.A4 ovarian carcinoma, DM331.AAD.A4 and SLM2.AAD.A1 melanomas, MCF7.AAD.A2 and MDAMB231.AAD breast carcinomas, and JY EBV-BLCL. Supernatants were harvested and evaluated for the presence of murine IFNγ (produced by murine CTL lines). […] The designation “pS” denotes a phosphoserine residue. The ordinate indicates murine IFNγ in pg/ml. The abscissa indicates each cell line.

Assay [4] has as its target T1, HLA A*0201 (Homo sapiens, UniProt P04439, D140Y/D185E/D98H/E176V/E277Q/G131W/G231S/I119V/I121R/I166T/I218V/L300P/L318F/N151K/N90K/P208A/P217A/Q86G/Q94H/R138H/R169H/T345S). Briefly: HLA-A*0201 peptide-binding competition assay. The note with it: for IC50: FIG. 2F, three independent experiments, triplicate wells, read-out: IC50, competition with a standard peptide for HLA-A2 binding (converted). The method, then:
Affinity purified HLA-A*0201 was incubated with iodinated peptide […] (SEQ ID NO: 2379), graded doses of test peptides, and β2M as previously described (Zarling et al., 2000). Peptide-MHC complexes were captured in W6/32-coated ELISA plates after 48 hours and the dose at which test peptides inhibited binding of the indicator peptide by 50% (IC50) was calculated.

Assay [5] concerns the target T1, HLA A*0201. In words: Binding to HLA A*0201 (statement).
The next assay has as its target HLA A*0301 (Homo sapiens, UniProt P04439). Briefly: Binding to HLA A*0301 (statement).
The subject of the next assay is melanoma cells. Briefly: T cell recognition of GSK-3β- and proteasome-inhibited melanoma cells. In kind it is cell-based, human. The note with it: for pS33-βcat-specific T cell recognition of melanoma cells: DM331 and SLM2, re-expression of peptide-MHC in presence of inhibitor (5 μM). The method, then: Surface peptide-MHC complexes were denatured from the cells using a mild acid buffer as previously described (Robila et al., 2008) and then allowed to re-express peptide-MHC molecules in the presence of BIO, MeBIO, or 5 μM lactacystin for 12 hours. T cell recognition of the cells was evaluated after 5 hours incubation with pS33-βcat-specific T cells.

For another assay, the system named is phosphoS33-β-catenin. Briefly: Western blot of phosphoS33-β-catenin and β-catenin. In kind it is cell-based, human. The note with it: BIO in the presence of lactacystin. The method, then:
Lysates were prepared from ˜80% confluent cells in buffer containing 2% Triton X 100 and protease and phosphatase inhibitors. Samples were separated on 8% SDS-PAGE (Thermo Fischer Scientific Inc., Waltham, Massachusetts, United States of America) and transferred to PVDF membranes (Millipore Immobilon-FL, 0.45 μm; Millipore Corporation, Billerica, Massachusetts, United States of America). Blots were probed with phosphoS33-β-catenin, β-catenin, and GAPDH antibodies overnight at 4° C. and developed by enhanced chemiluminescence (Millipore). Films were scanned and integrated density values determined using AlphaEase software and normalized to values obtained for GAPDH. In some cases, GSK-3 activity was inhibited using 5 μg BIO ((2′Z, 3′E)-6-Bromoindirubin-3′-oxime) and proteasomal degradation was blocked with 10 μg lactacystin (Calbiochem) before cells were lysed.

“KLIDRTE(pS)L (KLIDRTE[pS]L; listed as Homo sapiens) [SEQ ID NO: 440]”: the “Immune response in healthy donors, in words” value (“Immune response” for short) with CD8+ T cells was “not immunogenic”.
Take “RQA(pS)IELPSM (RQA[pS]IELPSM; listed as Homo sapiens) [SEQ ID NO: 451]”: the “Immune response” value with CD8+ T cells is given as “not immunogenic”.
As to “EPRsPSHSM (EPR[pS]PSHSM; listed as Homo sapiens) [SEQ ID NO: 270]”, the “Immune reconstitution after allogeneic stem cell transplantation” value with PBMCs [1] is given as “dramatic expansion”.
As for “RQA(pS)IELPSMAV (RQA[pS]IELPSMAV; listed as Homo sapiens) [SEQ ID NO: 452]”, the “Immune response” value with CD8+ T cells is reported as “some of the strongest responses”. For the same molecule, in assay [2], the “IFNγ production by RQA(pS)IELPSMAV-specific T cells in response to the peptide” value was “produced IFNγ”.
Turning to “GLLGpSPVRA (GLLG[pS]PVRA; listed as Homo sapiens) [SEQ ID NO: 396]”, in the assay with PBMCs [3] (healthy A2 positive donor alpha), the “Day 7 ELISpot, donor alpha” value was “+ (3-24 spots)”. The “Day 7 ELISpot, donor one” value in the assay on PBMCs [3] (healthy A2 positive donor one) was “+ (3-24 spots)”. Further, in the assay with cancer cell lines, the “Recognition of the endogenous phosphopeptide by specific CTL lines” value is listed as “recognized the phosphopeptide on all the cancer cell lines but not the control cell line”.
On to `CC[C@H](C)[C@H](NC(=O)CNC(=O)[C@H](COP(=O)(O)O)NC(=O)[C@H](CC(=O)O)NC(=O)[C@H](CC(C)C)NC(=O)[C@@H](N)Cc1ccc(O)cc1)C(=O)N[C@@H](Cc1c[nH]cn1)C(=O)N[C@@H](CO)C(=O)NCC(=O)N[C@H](C(=O)O)C(C)C` [SEQ ID NO: 2080, YLDsGIHSGV] (H-YLD[pS]GIHSGV-OH), for which the IC50 on HLA A*0201 [4] was 36.4 nM.
Take `CC[C@H](C)[C@H](NC(=O)CNC(=O)[C@H](COP(=O)(O)O)NC(=O)[C@H](CC(=O)O)NC(=O)[C@H](CC(C)C)NC(=O)[C@@H](N)Cc1ccc(O)cc1)C(=O)N[C@@H](Cc1c[nH]cn1)C(=O)N[C@@H](COP(=O)(O)O)C(=O)NCC(=O)N[C@@H](C)C(=O)O` [pS33/S37-βcat30] (H-YLD[pS]GIH[pS]GA-OH): the IC50 on HLA A*0201 [4] was 575 nM.
Turning to “RVAsPTSGVK (RVA[pS]PTSGVK; listed as Homo sapiens) [SEQ ID NO: 65]”, the “Binding to HLA A*0201” value with HLA A*0201 [5] is reported as “Neither of the A*0301 peptides bind to A*0201”. Moreover, the “Binding to / presentation by HLA A*0301” value with HLA A*0301 is on record as “bind to HLA A*0301”.
As for RQASIELPSMAV [reference compound], the “IFNγ production by RQA(pS)IELPSMAV-specific T cells in response to the peptide” value in [2] is listed as “not to the unphosphorylated RQASIELPSMAV”.
“RVAsPTSGVKR (RVA[pS]PTSGVKR; listed as Homo sapiens) [SEQ ID NO: 66]”: in the assay with HLA A*0201 [5], the “Binding to HLA A*0201” value is reported as “Neither of the A*0301 peptides bind to A*0201”. Also, the “Binding to / presentation by HLA A*0301” value in the assay with HLA A*0301 is given as “bind to HLA A*0301”.
On to VMIGsPKKL, for which the “HLA-A*0201 (MHC) binding affinity, in words” value with HLA A*0201 [4] is on record as “weak MHC binding affinity”. Besides, the “Memory T cell response, in words” value in the assay with PBMCs [3] (healthy donors / patient) was “strong phosphopeptide-specific memory T cell response”.
As to QPRtPSPLVL [SEQ ID NO: 304], the “Immune response” value in the assay with CD8+ T cells is “some of the strongest responses”. The “Immune reconstitution after allogeneic stem cell transplantation” value in the assay with PBMCs [1] is “dramatic expansion”.
Regarding `CC[C@H](C)[C@H](NC(=O)CNC(=O)[C@H](COP(=O)(O)O)NC(=O)[C@H](CC(=O)O)NC(=O)[C@H](CC(C)C)NC(=O)[C@@H](N)Cc1ccc(O)cc1)C(=O)N[C@@H](Cc1c[nH]cn1)C(=O)N[C@@H](CO)C(=O)NCC(=O)N[C@@H](C)C(=O)O` [SEQ ID NO: 427, YLD(pS)GIHSGA] (H-YLD[pS]GIHSGA-OH), the IC50 on HLA A*0201 [4] was 298 nM.
For the molecule `CC(=O)NC(CSC(=O)C1(C(O)C(C)C)NC(=O)C(C)C1O)C(=O)O` (stereo not shown) [lactacystin, 2-(acetylamino)-3-[({3-hydroxy-2-[1-hydroxy-2-methylpropyl]-4-methyl-5-oxopyrrolidin-2-yl}carbonyl)sulfanyl]propanoic acid], the “pS33-βcat-specific T cell recognition of melanoma cells” value with melanoma cells is “abolished”. Also, the “Amount of phosphoS33-β-catenin in melanoma cells” value in the assay on phosphoS33-β-catenin was “substantial increase”.
Turning to `O=C1Nc2cc(Br)ccc2/C1=C1/Nc2ccccc2/C1=N\O` [BIO, (2′Z, 3′E)-6-Bromoindirubin-3′-oxime], in the assay on melanoma cells, the “pS33-βcat-specific T cell recognition of melanoma cells” value is recorded as “completely abrogated recognition of melanoma cells”. The “T cell recognition of Tyr369” value with melanoma cells (control epitope) is given as “unaffected”. Further, in the assay with phosphoS33-β-catenin, the “Amount of phosphoS33-β-catenin in melanoma cells” value is reported as “significantly diminished”.
